From patent publication US20240199546A1, “INHIBITORS OF SOLUTE CARRIER FAMILY 6A MEMBER 19 (SLC6A19) AND METHODS OF USE THEREOF” (Maze Therapeutics, Inc., priority 2022, published 2024)

Target: T1, human SLC6A19 and TMEM27 (Homo sapiens, UniProt Q695T7)
T1 construct: expressed in transfected cells
T1 sequence (Q695T7 1-634): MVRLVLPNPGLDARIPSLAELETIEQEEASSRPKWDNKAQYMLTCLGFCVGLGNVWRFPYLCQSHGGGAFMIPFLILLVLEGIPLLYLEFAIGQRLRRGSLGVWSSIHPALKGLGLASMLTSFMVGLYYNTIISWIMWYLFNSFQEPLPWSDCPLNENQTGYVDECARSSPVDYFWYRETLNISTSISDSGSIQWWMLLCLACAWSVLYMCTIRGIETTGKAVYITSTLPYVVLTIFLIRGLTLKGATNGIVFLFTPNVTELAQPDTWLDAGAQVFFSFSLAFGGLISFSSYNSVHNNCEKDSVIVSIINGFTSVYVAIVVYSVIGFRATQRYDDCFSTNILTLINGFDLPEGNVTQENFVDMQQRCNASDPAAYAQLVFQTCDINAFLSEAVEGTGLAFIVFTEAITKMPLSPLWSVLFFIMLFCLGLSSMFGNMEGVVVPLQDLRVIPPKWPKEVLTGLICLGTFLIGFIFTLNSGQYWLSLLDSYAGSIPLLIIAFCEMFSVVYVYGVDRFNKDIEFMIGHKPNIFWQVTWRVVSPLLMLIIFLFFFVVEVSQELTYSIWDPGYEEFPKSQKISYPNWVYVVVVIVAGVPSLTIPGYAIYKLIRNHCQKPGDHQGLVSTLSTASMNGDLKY
T1 sequence (Q9HBJ8 15-222 partner): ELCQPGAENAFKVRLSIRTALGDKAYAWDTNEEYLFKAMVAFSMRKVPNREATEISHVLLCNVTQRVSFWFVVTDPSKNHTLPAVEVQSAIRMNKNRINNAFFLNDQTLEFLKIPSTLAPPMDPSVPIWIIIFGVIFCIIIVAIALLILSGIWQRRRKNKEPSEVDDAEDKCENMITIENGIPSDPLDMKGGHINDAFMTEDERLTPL
Test: Radiolabelled (3H) leucine uptake in CHO cells with doxycycline-inducible expression of human SLC6A19 and TMEM27 (Example B-1)
Assay type: cell-based
Conditions: CHO cells with doxycycline-inducible expression of human SLC6A19 and TMEM27, read-out: SLC6A19_Radioligand Uptake Assay IC50
How it was run: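 CHO cells were induced with doxycycline for 18 h at 37 °C, washed in HBSS, then exposed to compounds for 1 h: 8-point, 3-fold dilutions in duplicate, 0.5% DMSO final. Uptake measured by scintillation counting after 2 h shaking. Activity normalized with positive control as 0% and DMSO as 100%.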

Row | IC50 | SMILES
1 | 140 nM | Cc1cc(COc2cc3[nH]c(CNC(=O)[C@@H](C)O)cc3cc2Cl)on1 [Compound 256, (R)-N-((5-chloro-6-((3-methylisoxazol-5-yl)methoxy)-1H-indol-2-yl)methyl)-2-hydroxypropanamide]
2 | 756 nM | C[C@@H](O)C(=O)NCc1cc2cc(Cl)c(OCc3cscn3)cc2[nH]1 [Compound 257, (R)-N-((5-chloro-6-(thiazol-4-ylmethoxy)-1H-indol-2-yl)methyl)-2-hydroxypropanamide]
3 | 2670 nM | Cc1cc(COc2cc3[nH]c(CNC(=O)CC4COC4)cc3cc2Cl)on1 [Compound 258, N-((5-chloro-6-((3-methylisoxazol-5-yl)methoxy)-1H-indol-2-yl)methyl)-2-(oxetan-3-yl)acetamide]
4 | 121 nM | O=C(NCc1cc2cc(Cl)c(OCc3cscn3)cc2[nH]1)[C@H]1CCO1 [Compound 259, (R)-N-((5-chloro-6-(thiazol-4-ylmethoxy)-1H-indol-2-yl)methyl)oxetane-2-carboxamide]
5 | 2350 nM | CC1(C(=O)NCc2cc3cc(Cl)c(OCc4cscn4)cc3[nH]2)CCO1 (stereo not shown) [Compound 260, N-((5-chloro-6-(thiazol-4-ylmethoxy)-1H-indol-2-yl)methyl)-2-methyloxetane-2-carboxamide]
6 | 105 nM | O=C(NCc1cc2cc(Cl)c(OCc3cscn3)cc2[nH]1)C1COC1 [Compound 261, N-((5-chloro-6-(thiazol-4-ylmethoxy)-1H-indol-2-yl)methyl)oxetane-3-carboxamide]
7 | 472 nM | Cc1cc(COc2cc3[nH]c(CNC(=O)C4CCO4)cc3cc2F)on1 (stereo not shown) [Compound 262, N-((5-fluoro-6-((3-methylisoxazol-5-yl)methoxy)-1H-indol-2-yl)methyl)oxetane-2-carboxamide]
8 | 174 nM | COCC(=O)NCc1cc2cc(F)c(OCc3cc(C)no3)cc2[nH]1 [Compound 263, N-((5-fluoro-6-((3-methylisoxazol-5-yl)methoxy)-1H-indol-2-yl)methyl)-2-methoxyacetamide]
9 | 243 nM | O=C(NCc1cc2cc(F)c(OCc3cscn3)cc2[nH]1)C1CCO1 (stereo not shown) [Compound 264, N-((5-fluoro-6-(thiazol-4-ylmethoxy)-1H-indol-2-yl)methyl)oxetane-2-carboxamide]
10 | 120 nM | COCC(=O)NCc1cc2cc(F)c(OCc3cscn3)cc2[nH]1 [Compound 265, N-((5-fluoro-6-(thiazol-4-ylmethoxy)-1H-indol-2-yl)methyl)-2-methoxyacetamide]
11 | 142 nM | O=C(NCc1cc2cc(Cl)c(OCc3cscn3)cc2[nH]1)[C@H]1CCCO1 [Compound 266, (R)-N-((5-chloro-6-(thiazol-4-ylmethoxy)-1H-indol-2-yl)methyl)tetrahydrofuran-2-carboxamide]
12 | 720 nM | O=C(NCc1cc2cc(Cl)c(OCc3cscn3)cc2[nH]1)C1CCOC1 (stereo not shown) [Compound 267, N-((5-chloro-6-(thiazol-4-ylmethoxy)-1H-indol-2-yl)methyl)tetrahydrofuran-3-carboxamide]
13 | 421 nM | O=C(NCc1cc2cc(Cl)c(OCc3cscn3)cc2[nH]1)C1CCCO1 (stereo not shown) [Compound 268, N-((5-chloro-6-(thiazol-4-ylmethoxy)-1H-indol-2-yl)methyl)tetrahydrofuran-2-carboxamide]
14 | 66.6 nM | O=C(NCc1cc2cc(Cl)c(OCc3cscn3)cc2[nH]1)C1CCO1 (stereo not shown) [Compound 269, N-((5-chloro-6-(thiazol-4-ylmethoxy)-1H-indol-2-yl)methyl)oxetane-2-carboxamide]
15 | 110 nM | COCC(=O)NCc1cc2cc(Cl)c(OCc3cscn3)cc2[nH]1 [Compound 270, N-((5-chloro-6-(thiazol-4-ylmethoxy)-1H-indol-2-yl)methyl)-2-methoxyacetamide]
16 | 515 nM | COC(C)C(=O)NCc1cc2cc(Cl)c(OCc3cscn3)cc2[nH]1 (stereo not shown) [Compound 271, N-((5-chloro-6-(thiazol-4-ylmethoxy)-1H-indol-2-yl)methyl)-2-methoxypropanamide]
17 | 78.9 nM | COCC(=O)NCc1cc2cc(Cl)c(OCc3cc(C)no3)cc2[nH]1 [Compound 272, N-((5-chloro-6-((3-methylisoxazol-5-yl)methoxy)-1H-indol-2-yl)methyl)-2-methoxyacetamide]

Row | IC50 | SMILES
18 | 567 nM | Cc1cc(COc2cc3[nH]c(CNC(=O)C4(C)COC4)cc3cc2Cl)on1 [Compound 273, N-((5-chloro-6-((3-methylisoxazol-5-yl)methoxy)-1H-indol-2-yl)methyl)-3-methyloxetane-3-carboxamide]
19 | 175 nM | Cc1cc(COc2cc3[nH]c(CNC(=O)C4COC4)cc3cc2Cl)on1 [Compound 274, N-((5-chloro-6-((3-methylisoxazol-5-yl)methoxy)-1H-indol-2-yl)methyl)oxetane-3-carboxamide]
20 | 350 nM | Cc1cc(COc2cc3[nH]c(CNC(=O)C4(C#N)COC4)cc3cc2Cl)on1 [Compound 275, N-((5-chloro-6-((3-methylisoxazol-5-yl)methoxy)-1H-indol-2-yl)methyl)-3-cyanooxetane-3-carboxamide]
21 | 94 nM | Cc1cc(COc2cc3[nH]c(CNC(=O)[C@@H]4CCO4)cc3cc2Cl)on1 [Compound 276, (S)-N-((5-chloro-6-((3-methylisoxazol-5-yl)methoxy)-1H-indol-2-yl)methyl)oxetane-2-carboxamide]
22 | 279 nM | CC1(C(=O)NCc2cc3cc(Cl)c(OCc4cscn4)cc3[nH]2)COC1 [Compound 277, N-((5-chloro-6-(thiazol-4-ylmethoxy)-1H-indol-2-yl)methyl)-3-methyloxetane-3-carboxamide]
23 | 108 nM | Cc1cc(COc2cc3[nH]c(CNC(=O)C4CCO4)cc3cc2Cl)on1 (stereo not shown) [Compound 278, N-((5-chloro-6-((3-methylisoxazol-5-yl)methoxy)-1H-indol-2-yl)methyl)oxetane-2-carboxamide]
24 | 383 nM | COCC1(C(=O)NCc2cc3cc(Cl)c(OCc4cscn4)cc3[nH]2)CC1 [Compound 279, N-((5-chloro-6-(thiazol-4-ylmethoxy)-1H-indol-2-yl)methyl)-1-(methoxymethyl)cyclopropane-1-carboxamide]
25 | 2280 nM | C[C@H](O)C(=O)NCc1cc2cc(F)c(OCc3cscn3)cc2[nH]1 [Compound 281, (S)-N-((5-fluoro-6-(thiazol-4-ylmethoxy)-1H-indol-2-yl)methyl)-2-hydroxypropanamide]
26 | 2670 nM | C[C@@H](O)C(=O)NCc1cc2cc(F)c(OCc3cscn3)cc2[nH]1 [Compound 282, (R)-N-((5-fluoro-6-(thiazol-4-ylmethoxy)-1H-indol-2-yl)methyl)-2-hydroxypropanamide]
27 | > 8950 nM | Cc1cc(COc2cc3[nH]c(CNC(=O)[C@@H](C)O)cc3cc2F)on1 [Compound 283, (R)-N-((5-fluoro-6-((3-methylisoxazol-5-yl)methoxy)-1H-indol-2-yl)methyl)-2-hydroxypropanamide]
28 | 172 nM | Cc1cc(COc2cc3[nH]c(CNC(=O)[C@H](C)O)cc3cc2Cl)on1 [Compound 284, (S)-N-((5-chloro-6-((3-methylisoxazol-5-yl)methoxy)-1H-indol-2-yl)methyl)-2-hydroxypropanamide]
29 | 322 nM | C[C@H](O)C(=O)NCc1cc2cc(Cl)c(OCc3cscn3)cc2[nH]1 [Compound 285, (S)-N-((5-chloro-6-(thiazol-4-ylmethoxy)-1H-indol-2-yl)methyl)-2-hydroxypropanamide]
30 | 910 nM | Cc1cc(COc2cc3[nH]c(CNC(=O)C[C@H](C)O)cc3cc2Cl)on1 [Compound 286, (S)-N-((5-chloro-6-((3-methylisoxazol-5-yl)methoxy)-1H-indol-2-yl)methyl)-3-hydroxybutanamide]
31 | 2400 nM | Cc1cc(COc2cc3[nH]c(CNC(=O)C[C@@H](C)O)cc3cc2Cl)on1 [Compound 287, (R)-N-((5-chloro-6-((3-methylisoxazol-5-yl)methoxy)-1H-indol-2-yl)methyl)-3-hydroxybutanamide]
32 | 3260 nM | Cc1cc(COc2cc3[nH]c(CNC(=O)CC4(C)COC4)cc3cc2Cl)on1 [Compound 288, N-((5-chloro-6-((3-methylisoxazol-5-yl)methoxy)-1H-indol-2-yl)methyl)-2-(3-methyloxetan-3-yl)acetamide]
33 | 2020 nM | Cc1cc(COc2cc3[nH]c(CNC(=O)C[C@@H]4CCOC4)cc3cc2Cl)on1 [Compound 289, (S)-N-((5-chloro-6-((3-methylisoxazol-5-yl)methoxy)-1H-indol-2-yl)methyl)-2-(tetrahydrofuran-3-yl)acetamide]
34 | 5290 nM | Cc1cc(COc2cc3[nH]c(CNC(=O)C[C@H]4CCOC4)cc3cc2Cl)on1 [Compound 290, (R)-N-((5-chloro-6-((3-methylisoxazol-5-yl)methoxy)-1H-indol-2-yl)methyl)-2-(tetrahydrofuran-3-yl)acetamide]
